# Experimental data from patent US9580444B2, “Polycyclic pyrazolinone derivative and herbicide comprising same as effective component thereof” (priority 2013, dated 2017).
# Test system: Abutilon theophrasti (velvetleaf)
# Assay: Test Example-4: herbicidal effect by a foliage treatment after weeds are generated under upland field conditions
# Type: in vivo
# Settings: 500 g a.i/ha, foliage treatment after emergence, about 14 days after treatment, score 0-5
# From the text: (§1) Using the formulation prepared according to the methods described above, the herbicidal effect of the bicyclic pyrazolinone derivative of the invention according to the methods shown in Test Examples below was examined. The herbicidal effect with respect to the test weeds or the phytotoxicity with respect to the test crops was examined according to the following criteria, and evaluated in six stage scores of 0 to 5. A vat having an area of 65 cm^2 and a depth of 2 cm was filled with upland soil, then, seeds of Amaranthus viridis (green amaranthus), Abutilon theophrasti (velvetleaf), Chenopodium album (common lambsquarters), […]. While watering was suitably performed on there, the seeds were grown for 14 days. A wettable powder or an emulsifiable concentrate of the compound of the present invention prepared according to Formulation Example was diluted, and a spray treatment was uniformly performed on the foliage portion of the plant so as to be a predetermined dosage in the amount of water of 4000 L per hectare. The herbicidal effect with respect to the test weeds and the phytotoxicity with respect to corn about 14 days after the treatment were evaluated according to the evaluation criteria in six stages of 0 to 5 described above.
row,Compound,Herbicidal effect Abutilon theophrast
1,C=CCOC(=O)C=C(COc1cc(-c2c(Cl)n3n(c2=O)CCCC3)c(F)cc1Cl)OC (mixture of isomers) [Example 2-8],5 (Herbicidal effect/phytotoxicity was 90% or greater)
2,COC(=O)C=C(COc1cc(-c2c(Cl)n3n(c2=O)CCCC3)c(F)cc1Cl)OC (mixture of isomers) [Example 2-1],5 (Herbicidal effect/phytotoxicity was 90% or greater)
3,CC(C)Oc1cccc(Oc2cc(-c3c(Cl)n4n(c3=O)CCCC4)c(F)cc2Cl)c1 [Example 3-11],5 (Herbicidal effect/phytotoxicity was 90% or greater)
4,O=c1c(-c2cc(OC3CCCC3)c(Cl)cc2F)c(Cl)n2n1CCCCC2 [Example 1-182],5 (Herbicidal effect/phytotoxicity was 90% or greater)
5,CC(C)Oc1cc(-c2c(Cl)n3n(c2=O)CCCC3)ccc1Cl [Example 1-49],5 (Herbicidal effect/phytotoxicity was 90% or greater)
6,COc1ccccc1Oc1cc(-c2c(Cl)n3n(c2=O)CCCC3)c(F)cc1Cl [Example 3-2],5 (Herbicidal effect/phytotoxicity was 90% or greater)
7,C#CCOc1cc(C)ccc1Oc1cc(-c2c(Cl)n3n(c2=O)CCCC3)c(F)cc1Cl [Example 3-43],5 (Herbicidal effect/phytotoxicity was 90% or greater)
8,C#CC(C)Oc1cc(-c2c(Cl)n3n(c2=O)CCCC3)ccc1Cl (stereo not drawn) [Example 1-67],5 (Herbicidal effect/phytotoxicity was 90% or greater)
9,C=C(COc1cc(-c2c(Cl)n3n(c2=O)CCCC3)c(F)cc1Cl)c1cccc(Cl)c1 [Example 1-228],5 (Herbicidal effect/phytotoxicity was 90% or greater)

# Test system: Amaranthus viridis (green amaranthus)
# Assay: as above
# Type: in vivo
# Settings: 500 g a.i/ha, foliage treatment after emergence, about 14 days after treatment, score 0-5
# From the text: as §1
row,Compound,Herbicidal effect Amaranthus viridis
1,C=CCOC(=O)C=C(COc1cc(-c2c(Cl)n3n(c2=O)CCCC3)c(F)cc1Cl)OC (mixture of isomers) [Example 2-8],5 (Herbicidal effect/phytotoxicity was 90% or greater)
2,COC(=O)C=C(COc1cc(-c2c(Cl)n3n(c2=O)CCCC3)c(F)cc1Cl)OC (mixture of isomers) [Example 2-1],5 (Herbicidal effect/phytotoxicity was 90% or greater)
3,CC(C)Oc1cccc(Oc2cc(-c3c(Cl)n4n(c3=O)CCCC4)c(F)cc2Cl)c1 [Example 3-11],5 (Herbicidal effect/phytotoxicity was 90% or greater)
4,O=c1c(-c2cc(OC3CCCC3)c(Cl)cc2F)c(Cl)n2n1CCCCC2 [Example 1-182],5 (Herbicidal effect/phytotoxicity was 90% or greater)
5,CC(C)Oc1cc(-c2c(Cl)n3n(c2=O)CCCC3)ccc1Cl [Example 1-49],5 (Herbicidal effect/phytotoxicity was 90% or greater)
6,COc1ccccc1Oc1cc(-c2c(Cl)n3n(c2=O)CCCC3)c(F)cc1Cl [Example 3-2],5 (Herbicidal effect/phytotoxicity was 90% or greater)
7,C#CCOc1cc(C)ccc1Oc1cc(-c2c(Cl)n3n(c2=O)CCCC3)c(F)cc1Cl [Example 3-43],5 (Herbicidal effect/phytotoxicity was 90% or greater)
8,C#CC(C)Oc1cc(-c2c(Cl)n3n(c2=O)CCCC3)ccc1Cl (stereo not drawn) [Example 1-67],5 (Herbicidal effect/phytotoxicity was 90% or greater)
9,C=C(COc1cc(-c2c(Cl)n3n(c2=O)CCCC3)c(F)cc1Cl)c1cccc(Cl)c1 [Example 1-228],5 (Herbicidal effect/phytotoxicity was 90% or greater)

# Test system: Chenopodium album (common lambsquarters)
# Assay: as above
# Type: in vivo
# Settings: 500 g a.i/ha, foliage treatment after emergence, about 14 days after treatment, score 0-5
# From the text: as §1
row,Compound,Herbicidal effect Chenopodium album
1,C=CCOC(=O)C=C(COc1cc(-c2c(Cl)n3n(c2=O)CCCC3)c(F)cc1Cl)OC (mixture of isomers) [Example 2-8],5 (Herbicidal effect/phytotoxicity was 90% or greater)
2,COC(=O)C=C(COc1cc(-c2c(Cl)n3n(c2=O)CCCC3)c(F)cc1Cl)OC (mixture of isomers) [Example 2-1],5 (Herbicidal effect/phytotoxicity was 90% or greater)
3,CC(C)Oc1cccc(Oc2cc(-c3c(Cl)n4n(c3=O)CCCC4)c(F)cc2Cl)c1 [Example 3-11],5 (Herbicidal effect/phytotoxicity was 90% or greater)
4,O=c1c(-c2cc(OC3CCCC3)c(Cl)cc2F)c(Cl)n2n1CCCCC2 [Example 1-182],5 (Herbicidal effect/phytotoxicity was 90% or greater)
5,CC(C)Oc1cc(-c2c(Cl)n3n(c2=O)CCCC3)ccc1Cl [Example 1-49],5 (Herbicidal effect/phytotoxicity was 90% or greater)
6,COc1ccccc1Oc1cc(-c2c(Cl)n3n(c2=O)CCCC3)c(F)cc1Cl [Example 3-2],5 (Herbicidal effect/phytotoxicity was 90% or greater)
7,C#CCOc1cc(C)ccc1Oc1cc(-c2c(Cl)n3n(c2=O)CCCC3)c(F)cc1Cl [Example 3-43],5 (Herbicidal effect/phytotoxicity was 90% or greater)
8,C#CC(C)Oc1cc(-c2c(Cl)n3n(c2=O)CCCC3)ccc1Cl (stereo not drawn) [Example 1-67],5 (Herbicidal effect/phytotoxicity was 90% or greater)
9,C=C(COc1cc(-c2c(Cl)n3n(c2=O)CCCC3)c(F)cc1Cl)c1cccc(Cl)c1 [Example 1-228],5 (Herbicidal effect/phytotoxicity was 90% or greater)

# Test system: corn
# Assay: Test Example-4: phytotoxicity by a foliage treatment after weeds are generated under upland field conditions
# Type: in vivo
# Settings: 500 g a.i/ha, foliage treatment after emergence, about 14 days after treatment, score 0-5
# From the text: as §1
row,Compound,Phytotoxicity Corn
1,C=CCOC(=O)C=C(COc1cc(-c2c(Cl)n3n(c2=O)CCCC3)c(F)cc1Cl)OC (mixture of isomers) [Example 2-8],2 (Herbicidal effect/phytotoxicity was 30% to 50%)
2,COC(=O)C=C(COc1cc(-c2c(Cl)n3n(c2=O)CCCC3)c(F)cc1Cl)OC (mixture of isomers) [Example 2-1],1 (Herbicidal effect/phytotoxicity was 10% to 30%)
3,CC(C)Oc1cccc(Oc2cc(-c3c(Cl)n4n(c3=O)CCCC4)c(F)cc2Cl)c1 [Example 3-11],0 (Herbicidal effect/phytotoxicity was 0% to 10%)
4,O=c1c(-c2cc(OC3CCCC3)c(Cl)cc2F)c(Cl)n2n1CCCCC2 [Example 1-182],1 (Herbicidal effect/phytotoxicity was 10% to 30%)
5,CC(C)Oc1cc(-c2c(Cl)n3n(c2=O)CCCC3)ccc1Cl [Example 1-49],0 (Herbicidal effect/phytotoxicity was 0% to 10%)
6,COc1ccccc1Oc1cc(-c2c(Cl)n3n(c2=O)CCCC3)c(F)cc1Cl [Example 3-2],2 (Herbicidal effect/phytotoxicity was 30% to 50%)
7,C#CCOc1cc(C)ccc1Oc1cc(-c2c(Cl)n3n(c2=O)CCCC3)c(F)cc1Cl [Example 3-43],0 (Herbicidal effect/phytotoxicity was 0% to 10%)
8,C#CC(C)Oc1cc(-c2c(Cl)n3n(c2=O)CCCC3)ccc1Cl (stereo not drawn) [Example 1-67],0 (Herbicidal effect/phytotoxicity was 0% to 10%)
9,C=C(COc1cc(-c2c(Cl)n3n(c2=O)CCCC3)c(F)cc1Cl)c1cccc(Cl)c1 [Example 1-228],1 (Herbicidal effect/phytotoxicity was 10% to 30%)
